The DC50 is the concentration giving 50% degradation.

Our source for the DC50 values is patent US20240293423A1, “STAT DEGRADERS AND USES THEREOF” (Kymera Therapeutics, Inc., priority 2020, published 2024).

T1 sequence (P40763 whole entry): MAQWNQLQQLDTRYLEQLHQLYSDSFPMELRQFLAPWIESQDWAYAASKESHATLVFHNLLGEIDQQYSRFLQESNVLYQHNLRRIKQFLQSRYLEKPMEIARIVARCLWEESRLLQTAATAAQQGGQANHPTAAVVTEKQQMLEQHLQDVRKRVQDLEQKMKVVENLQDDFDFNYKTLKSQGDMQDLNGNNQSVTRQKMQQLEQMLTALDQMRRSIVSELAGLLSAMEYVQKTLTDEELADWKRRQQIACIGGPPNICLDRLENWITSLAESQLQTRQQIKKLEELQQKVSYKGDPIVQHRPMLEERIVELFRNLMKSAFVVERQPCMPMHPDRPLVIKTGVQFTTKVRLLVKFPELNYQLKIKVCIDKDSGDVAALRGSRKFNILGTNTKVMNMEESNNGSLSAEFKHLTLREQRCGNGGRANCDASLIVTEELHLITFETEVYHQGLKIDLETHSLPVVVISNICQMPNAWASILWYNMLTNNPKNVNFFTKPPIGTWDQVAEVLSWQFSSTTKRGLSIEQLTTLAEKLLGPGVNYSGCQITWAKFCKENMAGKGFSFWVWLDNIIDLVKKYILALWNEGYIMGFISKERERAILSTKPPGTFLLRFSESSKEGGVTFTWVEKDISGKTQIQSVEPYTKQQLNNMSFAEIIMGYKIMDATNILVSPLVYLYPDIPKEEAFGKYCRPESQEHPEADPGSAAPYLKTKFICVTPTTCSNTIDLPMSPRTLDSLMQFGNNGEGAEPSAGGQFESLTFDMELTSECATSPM

This assay concerns the target T1, STAT3 (Homo sapiens, UniProt P40763).
T1 construct: expressed in transfected cells; host or cells: A549
As to the kind of experiment: STAT3 HiBiT degradation assay in transfected A549 cells. The format is cell-based. The conditions noted are these: 24 h compound incubation, Nano-Glo HiBiT lytic detection, read-out: Cell: STAT3 HiBit A549 degradation 24 h GMean External Abs-DC50. The protocol: Compound preparation and Cell seeding: The transfected A549 cells were harvested from dish into cell culture medium and cell numbers counted. Cells were diluted with culture medium to the desired density and 30 μL of cell suspension (about 2000 cells/well) were added into each well of a 384-well cell culture plate as designated and transferred into 37° C. 5% CO2 incubator for 24 h. Compounds were dissolved to 10 mM stock solution and 12 μL of the stock solution was transferred to a 384 LDV-plate. 3 fold, 10-point dilution was performed by transferring 4 μL compound into 8 μL DMSO using a TECAN (EVO200) liquid handler. 30 μL of diluted compound from compound source plate was transferred into the cell plate as designated by using Echo550 and transferred into 37° C. 5% CO2 incubator for 24 h.
Detection: Plates were removed from incubators and equilibrated at room temperature for 15 minutes. Nano-Glo Hibit Lytic Detection reagent (Promega Cat #N3040) was thawed and equilibrated to room temperature before the experiment. 30 μL of Nano-Glo Hibit Lytic Detection reagent was added into each well to be detected. The plates were held at room temperature for 10 min followed by reading on EnSpire.
Data analysis: The remaining activity was calculated following the formula: Remaining Activity (%)=100%×(Lumsample−LumNC)/(LumPC−LumNC). Calculate the IC50 by fitting the curve using Xlfit (v5.3.1.3), equation 201: fit=(A+((B−A)/(1+((x/C)^D)))); A: Botton; B: Top; C: IC50; and D: Slope.
The letter codes for STAT3 DC50 include: A (<0.05 μM), B (0.05-0.2 μM), C (0.2-1.0 μM), and D (>1.0 μM).
For orientation: HiBiT is a short tag that completes a luciferase, so light tracks the accessible tagged protein.
For the molecule `CC(=O)N1CC[C@H]2CC[C@@H](C(=O)N[C@@H](CCC(N)=O)C(=O)N[C@@H](Cc3ccc(F)c(F)c3)C(=O)N3CCC(CCC#Cc4ccc5c(c4)n(C)c(=O)n5C4CCC(=O)NC4=O)CC3)N2C(=O)[C@@H](NC(=O)c2cc3cc(C(F)(F)P(=O)(O)O)ccc3s2)C1` (stereo partly shown) [Compound I-10], the DC50 lay within 50 to 200 nM.

In the case of `Cn1c(=O)n(C2CCC(=O)NC2=O)c2ccc(CCCC3CCN(C(=O)[C@H](Cc4ccc(F)c(F)c4)NC(=O)[C@H](CCC(N)=O)NC(=O)[C@@H]4CC[C@@H]5CCCC[C@H](NC(=O)c6cc7cc(C(F)(F)P(=O)(O)O)ccc7s6)C(=O)N54)CC3)cc21` (stereo partly shown) [Compound I-11], the DC50 was in the range of 50 to 200 nM. On to `Cn1c(=O)n(C2CCC(=O)NC2=O)c2ccc(CCCC3CCN(C(=O)[C@H](Cc4ccc(F)c(F)c4)NC(=O)[C@H](CCC(N)=O)NC(=O)[C@@H]4CC[C@@H]5CCCC[C@H](NC(=O)c6cc7cc(C(=O)P(=O)(O)O)ccc7[nH]6)C(=O)N54)CC3)cc21` (stereo partly shown) [Compound I-12], for which the DC50 was in the range of 200 to 1000 nM. Then `Cn1c(=O)n(C2CCC(=O)NC2=O)c2cccc(CCCC3CCN(C(=O)[C@H](Cc4ccc(F)c(F)c4)NC(=O)[C@H](CCC(N)=O)NC(=O)N4Cc5cccc6c5C4C(=O)[C@@H](NC(=O)c4cc5cc(C(=O)P(=O)(O)O)ccc5[nH]4)CC6)CC3)c21` (stereo partly shown) [Compound I-13], with 200 to 1000 nM. As for `Cn1c(=O)n(C2CCC(=O)NC2=O)c2cccc(CCCC3CCN(C(=O)[C@H](Cc4ccc(F)c(F)c4)NC(=O)[C@H](CCC(N)=O)NC(=O)N4Cc5cccc6c5C4C(=O)[C@@H](NC(=O)c4cc5cc(C(F)(F)P(=O)(O)O)ccc5s4)CC6)CC3)c21` (stereo partly shown) [Compound I-14], the DC50 is above 1000 nM.

On to `COC(=O)N1CC[C@H]2CC[C@@H](C(=O)N[C@@H](CCC(N)=O)C(=O)N[C@H](C(=O)N3CCC(CCCc4ccc5c(c4)n(C)c(=O)n5C4CCC(=O)NC4=O)CC3)C3CCCCC3)N2C(=O)[C@@H](NC(=O)c2cc3cc(C(F)(F)P(=O)(O)O)ccc3s2)C1` (stereo partly shown) [Compound I-15], for which the DC50 fell in the range of 200 to 1000 nM. As to `COC(=O)N1CC[C@H]2CC[C@@H](C(=O)N[C@@H](CCC(N)=O)C(=O)N[C@H](C(=O)N3CCC(CCC#Cc4cccc5c4n(C)c(=O)n5C4CCC(=O)NC4=O)CC3)C3CCCCC3)N2C(=O)[C@@H](NC(=O)c2cc3cc(C(F)(F)P(=O)(O)O)ccc3s2)C1` (stereo partly shown) [Compound I-16], the DC50 is 200 to 1000 nM. As for `COC(=O)N1CC[C@H]2CC[C@@H](C(=O)N[C@@H](CCC(N)=O)C(=O)N[C@H](C(=O)N3CCC(CCCCc4cccc5c4n(C)c(=O)n5C4CCC(=O)NC4=O)CC3)C3CCCCC3)N2C(=O)[C@@H](NC(=O)c2cc3cc(C(F)(F)P(=O)(O)O)ccc3s2)C1` (stereo partly shown) [Compound I-17], the figure is 200 to 1000 nM; as for `COC(=O)N1CC[C@H]2CC[C@@H](C(=O)N[C@@H](CCC(N)=O)C(=O)N[C@H](C(=O)N3CCC(CCCc4ccc5c(c4)n(C)c(=O)n5C4CCC(=O)NC4=O)CC3)C3CCCCC3)N2C(=O)[C@@H](NC(=O)c2cc3cc(C(=O)P(=O)(O)O)ccc3[nH]2)C1` (stereo partly shown) [Compound I-18], 200 to 1000 nM; as for `COC(=O)N1CC[C@H]2CC[C@@H](C(=O)N[C@@H](CCC(N)=O)C(=O)N[C@H](C(=O)N3CCC(CCC#Cc4cccc5c4n(C)c(=O)n5C4CCC(=O)NC4=O)CC3)C3CCCCC3)N2C(=O)[C@@H](NC(=O)c2cc3cc(C(=O)P(=O)(O)O)ccc3[nH]2)C1` (stereo partly shown) [Compound I-19], 200 to 1000 nM. As for `COC(=O)N1CC[C@H]2CC[C@@H](C(=O)N[C@@H](CCC(N)=O)C(=O)N[C@H](C(=O)N3CCC(CCCCc4cccc5c4n(C)c(=O)n5C4CCC(=O)NC4=O)CC3)C3CCCCC3)N2C(=O)[C@@H](NC(=O)c2cc3cc(C(=O)P(=O)(O)O)ccc3[nH]2)C1` (stereo partly shown) [Compound I-20], the figure is 200 to 1000 nM.

For the molecule `CC(=O)N1CC[C@H]2CC[C@@H](C(=O)N[C@@H](CCC(N)=O)C(=O)N[C@H](C(=O)N3CCC(CCCCc4cccc5c4n(C)c(=O)n5C4CCC(=O)NC4=O)CC3)C3CCCCC3)N2C(=O)[C@@H](NC(=O)c2cc3cc(C(=O)P(=O)(O)O)ccc3[nH]2)C1` (stereo partly shown) [Compound I-27], the DC50 was above 1000 nM.

Consider `CC(=O)N1CC[C@H]2CC[C@@H](C(=O)N[C@@H](CCC(N)=O)C(=O)N[C@H](C(=O)N3CCC(CCC#Cc4cccc5c4n(C)c(=O)n5C4CCC(=O)NC4=O)CC3)C3CCCCC3)N2C(=O)[C@@H](NC(=O)c2cc3cc(C(=O)P(=O)(O)O)ccc3[nH]2)C1` (stereo partly shown) [Compound I-29], for which the DC50 was above 1000 nM. For the molecule `CC(=O)N1CC[C@H]2CC[C@@H](C(=O)N[C@@H](CCC(N)=O)C(=O)N[C@H](C(=O)N3CCC(CCCc4ccc5c(c4)n(C)c(=O)n5C4CCC(=O)NC4=O)CC3)C3CCCCC3)N2C(=O)[C@@H](NC(=O)c2cc3cc(C(=O)P(=O)(O)O)ccc3s2)C1` (stereo partly shown) [Compound I-30], the DC50 is above 1000 nM. As for `CC(=O)N1CC[C@H]2CC[C@@H](C(=O)N[C@@H](CCC(N)=O)C(=O)N[C@H](C(=O)N3CCC(CCC#Cc4cccc5c4n(C)c(=O)n5C4CCC(=O)NC4=O)CC3)C3CCCCC3)N2C(=O)[C@@H](NC(=O)c2cc3cc(C(=O)P(=O)(O)O)ccc3s2)C1` (stereo partly shown) [Compound I-31], the DC50 lay in the range of 50 to 200 nM. As to `CC(=O)N1CC[C@H]2CC[C@@H](C(=O)N[C@@H](CCC(N)=O)C(=O)N[C@H](C(=O)N3CCC(CCCCc4cccc5c4n(C)c(=O)n5C4CCC(=O)NC4=O)CC3)C3CCCCC3)N2C(=O)[C@@H](NC(=O)c2cc3cc(C(=O)P(=O)(O)O)ccc3s2)C1` (stereo partly shown) [Compound I-32], the DC50 lay within 200 to 1000 nM.
